The results in this text go back to EP2805715A1, “Inhibitors of RNR2 subunit of ribonucleotide reductase to impair reverse transcription of hiv related lentiviruses in macrophages and use thereof for the treatment of hiv infected patients” (INSTITUT PASTEUR, priority 2013, dated 2014).

One data set relates to MDM. In words: MDM viability. The data set is classed as cell-based, human.
The subject of a further data set is HIV-1/VSV-G. The data set is classed as cell-based.

Where a name gives a salt, the structure may show the parent alone. Read-outs that look alike come from different tables or passages of the source.

Consider `NC(=O)NO` [HU, Hydroxyurea], for which the MDM viability result with MDM (at the concentrations used in the assays (data not shown)) is given as “not affected”. For the same compound, the “HIV-1 replication, fold changes of luciferase activity with respect to mock treated cells” value in the data set on HIV-1/VSV-G is given as “Dose dependent inhibition”.

Regarding `CC(=O)N(O)CCCCCNC(=O)CCC(=O)N(O)CCCCCNC(=O)CCC(=O)N(O)CCCCCN` [DFO, Deferoxamine mesylate], the MDM viability result with MDM was “not affected”. The “HIV-1 replication, fold changes of luciferase activity with respect to mock treated cells” value with HIV-1/VSV-G was “Dose dependent inhibition”.
